Test results taken from patent US12655116B2, “Substituted isophthalic acid diamides” (Bayer Aktiengesellschaft, priority 2020, dated 2026).

What was measured:
ALOMY [1] = assay: Pre-emergence herbicidal action against ALOMY; format: in vivo, Alopecurus myosuroides; settings: 80 g/ha, pre-emergence, scored visually after 3 weeks vs untreated controls (100% = plants have died, 0% = like control plants)
Outline: (§1)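 Seeds sown in sandy loam, soil-covered; compound sprayed on soil surface pre-emergence. Application: WP/EC, 600–800 l/ha, 0.2% wetting agent. Readout: visual % damage at 3 weeks.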

MATIN [2] = assay: Pre-emergence herbicidal action against MATIN; format: in vivo, Matricaria inodora
Outline: as §1

SETVI [3] = assay: Pre-emergence herbicidal action against SETVI; format: in vivo, Setaria viridis
Outline: as §1

VIOTR [4] = assay: Pre-emergence herbicidal action against VIOTR; format: in vivo, Viola tricolor
Outline: as §1

ECHCG [5] = assay: Pre-emergence herbicidal action against ECHCG; format: in vivo, Echinochloa crus-galli; settings: 80 g/ha
Outline: as §1

AMARE [6] = assay: Post-emergence herbicidal action against AMARE; format: in vivo, Amaranthus retroflexus; settings: 20 g/ha, visual assessment about 3 weeks after treatment, 100% = plants have died, 0% = like control plants
Outline: (§2)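 Percent herbicidal action is rated by eye about 3 weeks after treatment against untreated controls, where 100% means dead plants and 0% means like controls. Plants in sandy loam are sprayed on green parts at the one-leaf stage with aqueous WP or EC preparations at 600 to 800 l/ha plus 0.2% wetting agent.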

PHBPU [7] = assay: Pre-emergence herbicidal action against PHBPU; format: in vivo, Pharbitis purpurea
Description: Seeds of monocotyledonous and dicotyledonous weed plants and crop plants are laid out in sandy loam soil in wood-fiber pots and covered with soil. The compounds of the invention, formulated in the form of wettable powders (WP) or as emulsion concentrates (EC), are then applied to the surface of the covering soil in the form of an aqueous suspension or emulsion at a water application rate equivalent to 600 to 800 l/ha, with addition of 0.2% wetting agent. After the treatment, the pots are placed in a greenhouse and kept under good growth conditions for the trial plants. The damage to the test plants is scored visually after a test period of 3 weeks by comparison with untreated controls (herbicidal activity in percent (%): 100% activity=the plants have died, 0% activity=like control plants). […] The tables below illustrate, in an illustrative manner, the post-emergence herbicidal action of the compounds of the invention, the herbicidal activity being stated in percent.

AMARE [8] = assay: Pre-emergence herbicidal action against AMARE; format: in vivo, Amaranthus retroflexus
Outline: as §1

DIGSA [9] = assay: Pre-emergence herbicidal action against DIGSA; format: in vivo, Digitaria sanguinalis
Outline: as §1

VERPE [10] = assay: Pre-emergence herbicidal action against VERPE; format: in vivo, Veronica persica
Outline: as §1

ABUTH [11] = assay: Pre-emergence herbicidal action against ABUTH; format: in vivo, Abutilon theophrasti; settings: for Pre-emergence action against ABUTH (herbicidal activity): 80 g/ha, scored visually after 3 weeks vs untreated controls (100% = plants have died, 0% = like control plants); for Pre-emergence action against ABUTH (herbicidal activity in percent): dosage 20 g/ha, scored visually after 3 weeks vs untreated controls, 100% = plants have died, 0% = like control plants
Outline: as §1

PHBPU [12] = assay: Post-emergence herbicidal action against PHBPU; format: in vivo, Pharbitis purpurea
Outline: as §2

ALOMY [13] = assay: Post-emergence herbicidal action against ALOMY; format: in vivo, Alopecurus myosuroides; settings: dosage 20 g/ha, visual assessment about 3 weeks after treatment vs untreated controls
Outline: as §2

ABUTH [14] = assay: Post-emergence herbicidal action against ABUTH; format: in vivo, Abutilon theophrasti; settings: visual assessment about 3 weeks after treatment vs untreated controls
Outline: as §2

VIOTR [15] = assay: Post-emergence herbicidal action against VIOTR; format: in vivo, Viola tricolor
Outline: as §2

AVEFA = assay: Pre-emergence herbicidal action against AVEFA; format: in vivo, Avena fatua; settings: 80 g/ha, pre-emergence
Outline: as §1

VERPE [16] = assay: Post-emergence herbicidal action against VERPE; format: in vivo, Veronica persica; settings: 20 g/ha
Description: Seeds of monocotyledonous and dicotyledonous weed and crop plants are laid out in sandy loam soil in wood-fiber pots, covered with soil and cultivated in a greenhouse under good growth conditions. 2 to 3 weeks after sowing, the test plants are treated at the one-leaf stage. The compounds of the invention, formulated in the form of wettable powders (WP) or as emulsion concentrates (EC), are then sprayed onto the green parts of the plants in the form of an aqueous suspension or emulsion at a water application rate equivalent to 600 to 800 l/ha, with addition of 0.2% wetting agent. After the test plants have been left to stand in the greenhouse under optimal growth conditions for about 3 weeks, the action of the preparations is assessed visually in comparison to untreated controls (herbicidal action in percent (%): 100% activity=the plants have died, 0% activity=like control plants). […] The tables below illustrate, in an illustrative manner, the post-emergence herbicidal action of the compounds of the invention, the herbicidal activity being stated in percent.

MATIN [17] = assay: Post-emergence herbicidal action against MATIN; format: in vivo, Matricaria inodora
Outline: as §2

DIGSA [18] = assay: Post-emergence herbicidal action against DIGSA; format: in vivo, Digitaria sanguinalis; settings: 20 g/ha
Outline: as §2

ECHCG [19] = assay: Post-emergence herbicidal action against ECHCG; format: in vivo, Echinochloa crus-galli
Outline: as §2

SETVI [20] = assay: Post-emergence herbicidal action against SETVI; format: in vivo, Setaria viridis; settings: dosage 20 g/ha
Outline: as §2

[21] = 20 g/ha, scored visually after 3 weeks vs untreated controls, 100% = plants have died, 0% = like control plants
[22] = 80 g/ha, scored visually after 3 weeks vs untreated controls (100% = plants have died, 0% = like control plants)

Structure (SMILES) | Pre-emergence action against ALOMY (herbicidal activity) (ALOMY [1]) [%] | Pre-emergence action against MATIN in % (MATIN [2]; dosage 80 g/ha) [%] | Pre-emergence action against SETVI in % (SETVI [3]; dosage 80 g/ha) [%] | Pre-emergence action against VIOTR in % (VIOTR [4]; dosage 20 g/ha) [%] | Pre-emergence action against VIOTR in % (VIOTR [4]; dosage 80 g/ha) [%] | Pre-emergence action against ECHCG in % (ECHCG [5]) [%] | Post-emergence action at 20 g/ha against AMARE in % (AMARE [6]) [%] | Pre-emergence action against PHBPU in % (PHBPU [7]; dosage 80 g/ha) [%] | Pre-emergence action against AMARE in % (AMARE [8]; [21]) [%] | Pre-emergence action against AMARE in % (AMARE [8]; [22]) [%] | Pre-emergence action against DIGSA in % (DIGSA [9]; dosage 20 g/ha) [%] | Pre-emergence action against DIGSA in % (DIGSA [9]; dosage 80 g/ha) [%] | Pre-emergence action against VERPE in % (VERPE [10]; dosage 80 g/ha) [%] | Pre-emergence action against ABUTH (herbicidal activity) (ABUTH [11]) [%] | Post-emergence action against PHBPU in % (PHBPU [12]; dosage 20 g/ha) [%] | Post-emergence action against ALOMY in % (ALOMY [13]) [%] | Pre-emergence action against MATIN in % (MATIN [2]; dosage 20 g/ha) [%] | Pre-emergence action against ABUTH (herbicidal activity in percent) (ABUTH [11]) [%] | Post-emergence action against ABUTH in % (ABUTH [14]; dosage 20 g/ha) [%] | Post-emergence action against VIOTR in % (VIOTR [15]; 20 g/ha) [%] | other results
Cn1nnnc1NC(=O)c1ccc(C(F)(F)F)c(C(=O)NCC2CCCO2)c1Cl (centres unmarked) [Example 1-141] | 90 | 100 | 100 | 80 | 100 | 90 | 100 | 80 | 100 | 100 | 90 | 100 | – | – | – | – | – | – | – | – | Pre-emergence action against SETVI in % (SETVI [3]; dosage 20 g/ha): 90%
CCn1nnnc1NC(=O)c1ccc(C(F)F)c(C(=O)NCC2CCCO2)c1Cl (centres unmarked) [Example 2-159] | 80 | 90 | – | – | 80 | 90 | 100 | 90 | 100 | 100 | – | – | 80 | 100 | 90 | – | – | – | – | – | Post-emergence action against PHBPU in % (PHBPU [12]; dosage 5 g/ha): 80%
CCn1nnnc1NC(=O)c1ccc(Br)c(C(=O)NCCOC)c1Cl [Example 2-186] | 100 | 100 | – | – | 90 | 100 | 100 | – | 100 | 100 | – | – | 90 | 100 | – | 80 | 80 | 100 | 90 | 80 | Post-emergence action against ABUTH in % (ABUTH [14]; dosage 5 g/ha): 80%; Pre-emergence action against AVEFA in % (AVEFA): 80%; Post-emergence action against VERPE in % (VERPE [16]): 80%
CCn1nnnc1NC(=O)c1ccc(C(F)(F)F)c(C(=O)NC(C)C2CC2)c1Br (centres unmarked) [Example 2-213] | – | 100 | 100 | 100 | 100 | 90 | – | 90 | 100 | 100 | 80 | 100 | 90 | 100 | 80 | – | 100 | 100 | 80 | 90 | Post-emergence action against MATIN in % (MATIN [17]; dosage 5 g/ha): 90%; Post-emergence action against MATIN in % (MATIN [17]; dosage 20 g/ha): 100%; Post-emergence action against DIGSA (DIGSA [18]): 90%; Pre-emergence action against PHBPU in % (PHBPU [7]; dosage 20 g/ha): 80%; Post-emergence action against ECHCG in % (ECHCG [19]; dosage 5 g/ha): 80%; Post-emergence action against ECHCG in % (ECHCG [19]; dosage 20 g/ha): 80%; Post-emergence action against PHBPU in % (PHBPU [12]; dosage 5 g/ha): 80%
CCn1nnnc1NC(=O)c1ccc(C(F)F)c(C(=O)NCCOC)c1C [Example 2-346] | 80 | 90 | – | 80 | 80 | 90 | 100 | – | 100 | 100 | – | – | 80 | 90 | 80 | 80 | 90 | 80 | 90 | 100 | Post-emergence action against ABUTH in % (ABUTH [14]; dosage 5 g/ha): 90%; Post-emergence action against VIOTR in % (VIOTR [15]; 5 g/ha): 80%; Post-emergence action against ECHCG in % (ECHCG [19]; dosage 5 g/ha): 80%; Post-emergence action against ECHCG in % (ECHCG [19]; dosage 20 g/ha): 90%; Pre-emergence action against AVEFA in % (AVEFA): 80%; Post-emergence action against VERPE in % (VERPE [16]): 80%
CCn1nnnc1NC(=O)c1ccc(OC)c(C(=O)NC2CC2)c1Cl [Example 2-354] | 90 | 100 | – | 80 | 100 | – | 100 | – | 100 | 100 | – | – | 80 | 100 | 80 | 80 | 100 | 90 | 90 | 100 | Post-emergence action against SETVI in % (SETVI [20]): 90%; Pre-emergence action against VERPE in % (VERPE [10]; dosage 20 g/ha): 80%; Post-emergence action against ABUTH in % (ABUTH [14]; dosage 5 g/ha): 90%; Pre-emergence action against AVEFA in % (AVEFA): 90%; Post-emergence action against VERPE in % (VERPE [16]): 90%
Cc1nnc(NC(=O)c2ccc(C(F)(F)F)c(C(=O)NCC3CC3)c2C2CC2)o1 [Example 6-228] | – | 80 | 80 | – | – | 90 | 90 | 80 | – | 100 | 90 | 100 | – | 90 | 80 | – | – | – | – | – | Post-emergence action against DIGSA (DIGSA [18]): 80%
